Counter-ions that a name gives are not always drawn. Like-named read-outs stand apart in the source and are kept apart here.
Assays:
[1] = target: T1, recombinant human BChE (Homo sapiens, UniProt P06276); format: biochemical; details: for BChE inhibitory effect (activity call): active in colorimetric assay and in fluorescence assay
[2] = target: T1, recombinant human BChE
[3] = target: T2, recombinant human AChE (Homo sapiens, UniProt P22303)
[4] = target: T2, recombinant human AChE; details: fluorescence-based assay
[5] = system: BChE; details: cited from earlier work
[6] = system: AChE; details: ref [8], cited from earlier work

T2 sequence (P22303 32-614): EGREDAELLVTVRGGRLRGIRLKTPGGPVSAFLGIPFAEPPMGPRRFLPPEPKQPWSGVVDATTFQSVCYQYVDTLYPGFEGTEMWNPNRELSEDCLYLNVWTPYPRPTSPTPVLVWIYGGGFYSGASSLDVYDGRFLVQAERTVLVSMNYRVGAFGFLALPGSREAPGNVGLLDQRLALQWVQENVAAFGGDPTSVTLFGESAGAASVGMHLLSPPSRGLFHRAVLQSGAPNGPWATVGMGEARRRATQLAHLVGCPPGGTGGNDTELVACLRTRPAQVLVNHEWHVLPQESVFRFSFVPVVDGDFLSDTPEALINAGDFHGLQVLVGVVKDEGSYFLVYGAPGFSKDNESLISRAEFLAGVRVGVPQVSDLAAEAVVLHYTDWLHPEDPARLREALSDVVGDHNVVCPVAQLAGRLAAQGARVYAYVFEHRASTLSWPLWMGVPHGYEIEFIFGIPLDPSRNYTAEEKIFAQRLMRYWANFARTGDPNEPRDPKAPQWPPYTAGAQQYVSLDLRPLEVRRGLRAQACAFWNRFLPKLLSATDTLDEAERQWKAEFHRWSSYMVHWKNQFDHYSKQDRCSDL
T1 sequence (P06276 29-602): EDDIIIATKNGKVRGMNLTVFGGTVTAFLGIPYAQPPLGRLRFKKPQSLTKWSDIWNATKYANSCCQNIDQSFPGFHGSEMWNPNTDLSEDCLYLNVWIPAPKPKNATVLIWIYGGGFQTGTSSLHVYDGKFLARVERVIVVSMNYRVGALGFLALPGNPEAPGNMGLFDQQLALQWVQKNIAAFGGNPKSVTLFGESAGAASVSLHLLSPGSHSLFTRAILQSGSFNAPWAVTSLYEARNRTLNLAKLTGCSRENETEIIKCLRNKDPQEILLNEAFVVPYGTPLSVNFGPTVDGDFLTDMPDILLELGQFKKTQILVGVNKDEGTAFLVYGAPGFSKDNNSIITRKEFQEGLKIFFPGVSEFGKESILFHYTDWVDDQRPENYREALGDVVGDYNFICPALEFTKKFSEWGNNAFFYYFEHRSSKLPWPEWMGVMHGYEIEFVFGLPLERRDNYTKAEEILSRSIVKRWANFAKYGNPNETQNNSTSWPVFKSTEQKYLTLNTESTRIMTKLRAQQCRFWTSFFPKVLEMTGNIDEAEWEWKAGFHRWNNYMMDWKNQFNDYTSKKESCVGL

For `Cc1ccc(C)c(-n2cc(CN(C)CCO)c(-c3ccccc3)n2)c1` [NCGC00425816], the “efficacy, BChE inhibition” value ([1]; fluorescence-based assay) was 109%±6.76, the IC50 ([1]; read-out: IC50, BChE inhibition, fluorescence-based assay) was 80 ± 10 nM and the “selectivity index (SI)” value ([2]; BChE over AChE) was 1250-2351. For the same molecule, the “efficacy, BChE inhibition” value ([2]; colorimetric assay) was 98.9%±3.21 and the IC50 ([2]; read-out: IC50, BChE inhibition, colorimetric assay) was 40 ± 10 nM.

With `O=C(NCc1ccnc(N2CCCC2)c1)C1CCCN(c2cc(-n3cncn3)ncn2)C1` (stereo not drawn) [NCGC00526830] the “selectivity index (SI)” value ([3]; AChE over BChE) was 79-164, the “efficacy, AChE inhibition” value ([3]; colorimetric assay) was 78%±4.18 and the IC50 ([3]; read-out: IC50, AChE inhibition, colorimetric assay) was 270 nM. The “efficacy, AChE inhibition” value [4] was 116%±3.24 and the IC50 ([4]; read-out: IC50, AChE inhibition) was 130 ± 20 nM.

For `CCN(CCCc1ccccc1)CCCc1ccccc1` [alverine citrate], the “BChE inhibitory effect (activity call)” value [1] was “confirmed by both assays”.

For `CN(C)[C@@H](CCOc1cccc2ccccc12)c1ccccc1` [dapoxetine HCl], the “BChE inhibitory effect (activity call)” value [1] was “confirmed by both assays”.

In the case of `CCN(CC)C(C)CN1c2ccccc2Sc2ccccc21` (stereo not drawn) [ethopropazine], the IC50 ([5]; read-out: IC50, BChE inhibition, ref [41], [42]) is listed as 210 to 300 nM and the “selectivity for BChE over AChE” value ([5]; ref [39]) is listed as ~ 1000 fold.

For `COc1ccc2c3c1O[C@H]1C[C@@H](O)C=C[C@@]31CCN(C)C2` [galantamine], the IC50 ([6]; read-out: IC50, AChE inhibition, [40]) is listed as 790 nM and the “selective inhibition of AChE activity versus BChE” value [6] is listed as 50 fold.

With `CCN(CC)CCOC(=O)C(Cc1cccc2ccccc12)CC1CCCO1` (stereo not drawn) [nafronyl oxalate] the “BChE inhibitory effect (activity call)” value [1] was “confirmed by both assays”.

With `CC(CCc1ccccc1)NC(C)C(O)c1ccc(O)cc1` (stereo not drawn) [nylidrin hydrochloride] the “BChE inhibitory effect (activity call)” value [1] was “confirmed by both assays”.

Source: article PMC10688023 (Journal of chemical information and modeling, 2023)
